How the values were obtained:
4T1 breast tumor model [1] = assay: Efficacy of AS1517499-loaded liposomes on tumor growth in the 4T1 breast tumor model; type: in vivo, mice; details: 8 mg/kg, intravenous route, twice weekly
Protocol: (§1) For efficacy analysis of AS1517499-loaded liposomes, 1×10^5 Luc-cells were injected into the mammary fat pad, and tumors were allowed to develop to a size of 100 mm^3. Thereupon, treatment with AS1517499-loaded liposomes (8 mg/kg, intravenous administrations, twice a week) was started. Before sacrifice, mice were injected with 2.5 mg of D-Luciferin (Perkin-Elmer, Waltham, MA) and were imaged after 15 minutes to detect bioluminescence signal using a Pearl Trilogy imager (LICOR).
Mouse 4T1-Luc cells were injected orthotopic into the mammary fat pad of BalbC mice. The mice were randomly assigned into five groups: a) treated with PBS as the vehicle group, b) treated with free AS, c) treated with AS-HSPC liposomes, d) treated with AS-PAzPC liposomes, e) treated with empty PAzPC liposomes. […] Since the loading of the AS1517499 was little in the liposomes, 8 mg/kg was injected, intravenous route, twice weekly.

[2] = tested on: 4T1 orthotopic tumor model; details: free AS1517499, 20 mg/kg; i.p route; cited from earlier work
4T1 breast tumor model [3] = assay: Effect of AS-loaded liposomes on pre-metastatic niche in liver and lungs (qPCR); type: in vivo, mice; details: compared to the vehicle group
Protocol: as §1
TAMs display a number of pro-tumoral functions, including extracellular matrix remodeling, neoangiogenesis, suppression of adaptive immunity and facilitate tumor metastasis (Allavena et al. 2012 Exp. Immunol. 167, 195-205, doi:10.1111/j.1365-2249.2011.04515.x). […] As most of cancer related mortalities occur due to metastasis, the effect of AS-loaded liposomes on the pre-metastatic niche in the organs (liver and lungs) of the 4T1 breast tumor was examined using qPCR analysis (FIG. 9).

THP-1 macrophages [4] = assay: Cell growth after 24-hour treatment of MTP-PE and IFNγ; type: cell-based, human; details: IFNγ 20 ng/ml
Protocol: FIG. 12. In vitro effects of MTP-PE and IFNγ in differentiated THP-1 macrophages. qPCR analysis of macrophage differentiation with MTP-PE with or without IFNγ for M1 markers IL-1β, IL-6, TNFα and M2 markers for DC-SIGN. […] B) The cell growth was evaluated after 24-hour treatment of MTP-PE and IFNγ C) MTP-PE, in synergy with IFNγ activates tumoricidal properties by inducing more M1 markers. Bars represent mean+SEM, n=3 *p<0.05, **p<0.005, ***p<0.001.
(§2) (IL-1β and TNFα) in TAMs, which indicates the switch of M2 macrophages toward M1 phenotype (FIG. 12A). In the second experiment, IFNγ, a well-known inducer of M1 macrophage differentiation, was tested (Sica et al. 2012 J. Clin. Invest. 122, 787-795, doi:10.1172/JCI59643), and MTP-PE to understand the role of IFNγ potentiation effect on macrophage reprogramming.

THP-1 macrophages [5] = assay: Effect of MTP-PE and IFNγ on differentiated THP-1 macrophages (qPCR); type: cell-based, human; details: for DC-SIGN (M2 marker) expression in TAMs: second experiment, with or without IFNγ
Protocol: (§3) Macrophages were differentiated as reported in [7]. Briefly, THP-1 cells were treated for 24 hours with 100 ng/ml of phorbol 12-myristate 13-acetate (PMA, Cayman Chemicals) to allow their attachment. The medium was replaced by medium containing 20 ng/ml IL-4 and IL-13 (Peprotech, London, UK) for M2 differentiation, or 20 ng/ml IFNγ (Peprotech) and 100 ng/ml LPS (Sigma Aldrich) for M1 differentiation. Cells were incubated with cytokines for 24 hours (gene expression on differentiation), and 72 hours (liposome uptake experiments). BMDMs were plated overnight with a density of 50,000 cells/ml. After 24 hours, medium was aspirated. Cells were incubated for 24 hours in complete RPMI medium containing IL-4 and IL-13 at 10 ng/ml (M2 differentiation) or LPS and IFN-γ at 100 and 10 ng/ml. In case of RAW264.7 cells, M1 macrophages were differentiated using 10 ng-mL murine recombinant IFNγ and 10 ng-mL LPS. M2 macrophages were differentiated using 10 ng-mL murine IL-4 and IL-13.
(§4) 0.5×10^6 RAW264.7/THP-1 cells were plated in 12-well plates, if applicable treated with respective cytokines for differentiation, and activated using PMA. Cells were then incubated with different liposomal preparations (50 μM) or differentiation cytokines for 24 hours. BMDM were differentiated as described above. After differentiation, cells were washed with PBS and then lysed using lysis buffer and total RNA was isolated using SV Total RNA Isolation System (Promega, Madison, WI). cDNA was prepared by using iScript cDNA synthesis kit (Bio-Rad, Hercules, CA) and qRT-PCR was performed with 10 ng of cDNA per reaction mixture using SYBR green assay (Bioline, London, UK). Reactions were measured using the CFX384 Real-Time PCR detection system (Bio-Rad). The threshold cycles (Ct) values were calculated and relative gene expression (ddCt method) was analyzed after normalization using the Rsp18 (THP-1) or Gapdh (RAW264.7/BMDM) house-keeping gene.
Next, the effect of MTP-PE on differentiated human macrophages THP-1 was investigated.
as §2

RAW 264.7 macrophages = assay: Effect of MTP-PE on differentiated RAW 264.7 macrophages (qPCR); type: cell-based, murine
Protocol: as §3, §4
To study the effect of MTP-PE, murine macrophages RAW 264.7 were first differentiated with IFNγ and LPS for M1 and with IL-4 and IL-13 for M2 macrophages (TAM). […]

[6] = increasing concentrations of MTP-PE

Molecule | Tumor volume/weight compared to the vehicle group (4T1 breast tumor model [1]) | Premetastatic niche in liver [2] | Tumor volume compared to the vehicle group [2] | CD31, collagen I, periostin, fibronectin expression in liver samples (4T1 breast tumor model [3]) | Cell growth (THP-1 macrophages [4]) | DC-SIGN gene expression (M2 differentiation) (THP-1 macrophages [5]; 1 and 10 ug/ml, first experiment) | M1 type differentiation markers in presence of M1 cytokines (THP-1 macrophages [5]; data not shown) | M1 cytokine markers (IL-1β and TNFα) in TAMs (THP-1 macrophages [5]; first experiment) | DC-SIGN (M2 marker) expression in TAMs (THP-1 macrophages [5]) | Cytokines (IL-1β, IL-6, TNFα) expression in M1 differentiation (RAW 264.7 macrophages; MTP-PE dose-dependent conc., in presence of IFNγ) | M2 macrophage markers (MRC-1, ARG-1) in M2 macrophages (RAW 264.7 macrophages; [6]) | TNFα expression in M2-type macrophages (RAW 264.7 macrophages; [6])
NC(=O)c1cnc(NCCc2ccc(O)c(Cl)c2)nc1NCc1ccccc1 [AS1517499] | no difference in tumor volume/weight | reduced premetastatic niche in liver | inhibited tumor volume significantly | no statistically significant difference | – | – | – | – | – | – | – | –
muramyl tripeptide-phosphatidyl ethanolamine [MTP-PE] | – | – | – | – | no direct effect on the cell growth | reduced expression of DC-SIGN gene | increased the M1 type differentiation markers | induced M1 cytokine markers | reduced the expression of DC-SIGN | increasing the cytokines (IL-1β, IL-6, TNFα) expression | did not show any inhibition | increased TNFα expression
IFNγ: cytokine that activates inflammatory M1-type macrophages (protein, UniProt P01579 24-161, looked up) Interferon gamma: QDPYVKEAENLKKYFNAGHSDVADNGTLFLGILKNWKEESDRKIMQSQIVSFYFKLFKNFKDDQSIQKSVETIKEDMNVKFFNSNKKKRDDFEKLTNYSVTDLNVQRKAIHELIQVMAELSPAAKTGKRKRSQMLFRG | – | – | – | – | reduced the cell growth significantly | – | – | – | increased expression of DC-SIGN | – | – | –

From patent publication US12156938B2, “Liposomes for targeting tumor-associated macrophages” (Universiteit Twente, priority 2018, dated 2024)
